ChEMBL document CHEMBL5696441 (Nat Chem Biol, 2011)

Experiments:
[1] = test system: Tyrosine-protein kinase ABL1 (Homo sapiens), P00519 [F317I]; experiment: Inhibition of ABL1 F317I mutant (unknown origin) assessed as remaining activity at 1 uM by Kinome scan method relative to control
[2] = target: Activin receptor type-2A (Homo sapiens) (UniProt P27037); experiment: Inhibition of ACVR2A (unknown origin) assessed as remaining activity at 1 uM by Kinome scan method relative to control
[3] = target: Mitogen-activated protein kinase 7 (Homo sapiens) (UniProt Q13164); experiment: Inhibition of ERK5 (unknown origin) assessed as remaining activity at 1 uM by Kinome scan method relative to control
[4] = target: Homeodomain-interacting protein kinase 3 (Homo sapiens) (UniProt Q9H422); experiment: Inhibition of HIPK3 (unknown origin) assessed as remaining activity at 1 uM by Kinome scan method relative to control
Sequence of Homeodomain-interacting protein kinase 3 (Homo sapiens) (Q9H422 whole entry, looked up): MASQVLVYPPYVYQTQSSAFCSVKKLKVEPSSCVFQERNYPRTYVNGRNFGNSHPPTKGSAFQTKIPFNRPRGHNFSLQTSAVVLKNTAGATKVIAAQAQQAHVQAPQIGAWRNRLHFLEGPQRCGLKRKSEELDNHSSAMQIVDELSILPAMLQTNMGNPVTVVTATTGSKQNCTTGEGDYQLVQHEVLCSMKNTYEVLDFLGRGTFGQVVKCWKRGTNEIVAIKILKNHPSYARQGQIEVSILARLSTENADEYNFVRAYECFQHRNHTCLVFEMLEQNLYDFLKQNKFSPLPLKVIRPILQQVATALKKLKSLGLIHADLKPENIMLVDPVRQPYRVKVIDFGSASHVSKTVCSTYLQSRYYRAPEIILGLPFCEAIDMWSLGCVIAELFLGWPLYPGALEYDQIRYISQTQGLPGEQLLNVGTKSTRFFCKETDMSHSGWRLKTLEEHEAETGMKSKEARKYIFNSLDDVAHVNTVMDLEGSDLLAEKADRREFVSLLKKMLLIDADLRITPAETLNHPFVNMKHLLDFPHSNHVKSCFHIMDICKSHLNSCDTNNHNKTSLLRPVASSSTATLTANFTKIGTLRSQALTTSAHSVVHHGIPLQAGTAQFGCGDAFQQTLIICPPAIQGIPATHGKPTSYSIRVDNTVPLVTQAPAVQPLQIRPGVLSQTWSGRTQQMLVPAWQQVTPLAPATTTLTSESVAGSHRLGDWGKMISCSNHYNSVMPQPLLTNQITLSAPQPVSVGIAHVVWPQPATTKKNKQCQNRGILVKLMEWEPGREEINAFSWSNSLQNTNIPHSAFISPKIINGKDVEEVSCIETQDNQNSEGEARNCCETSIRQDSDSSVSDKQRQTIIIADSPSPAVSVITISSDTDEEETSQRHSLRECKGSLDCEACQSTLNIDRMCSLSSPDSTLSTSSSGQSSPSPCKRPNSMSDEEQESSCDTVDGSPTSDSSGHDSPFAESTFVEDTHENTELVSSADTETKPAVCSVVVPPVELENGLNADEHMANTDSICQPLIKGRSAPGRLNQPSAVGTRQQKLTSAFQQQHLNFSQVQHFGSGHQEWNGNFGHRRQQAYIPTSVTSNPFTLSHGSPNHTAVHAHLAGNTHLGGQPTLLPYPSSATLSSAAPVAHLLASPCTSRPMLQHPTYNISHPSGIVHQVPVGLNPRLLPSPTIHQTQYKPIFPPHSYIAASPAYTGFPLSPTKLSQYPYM

[5] = test system: Mast/stem cell growth factor receptor Kit (Homo sapiens), P10721 [D816V]; experiment: Inhibition of KIT D816V mutant (unknown origin) assessed as remaining activity at 1 uM by Kinome scan method relative to control
[6] = target: Serine/threonine-protein kinase LATS1 (Homo sapiens) (UniProt O95835); experiment: Inhibition of LATS1 (unknown origin) assessed as remaining activity at 1 uM by Kinome scan method relative to control
Sequence of Serine/threonine-protein kinase LATS1 (Homo sapiens) (O95835 whole entry): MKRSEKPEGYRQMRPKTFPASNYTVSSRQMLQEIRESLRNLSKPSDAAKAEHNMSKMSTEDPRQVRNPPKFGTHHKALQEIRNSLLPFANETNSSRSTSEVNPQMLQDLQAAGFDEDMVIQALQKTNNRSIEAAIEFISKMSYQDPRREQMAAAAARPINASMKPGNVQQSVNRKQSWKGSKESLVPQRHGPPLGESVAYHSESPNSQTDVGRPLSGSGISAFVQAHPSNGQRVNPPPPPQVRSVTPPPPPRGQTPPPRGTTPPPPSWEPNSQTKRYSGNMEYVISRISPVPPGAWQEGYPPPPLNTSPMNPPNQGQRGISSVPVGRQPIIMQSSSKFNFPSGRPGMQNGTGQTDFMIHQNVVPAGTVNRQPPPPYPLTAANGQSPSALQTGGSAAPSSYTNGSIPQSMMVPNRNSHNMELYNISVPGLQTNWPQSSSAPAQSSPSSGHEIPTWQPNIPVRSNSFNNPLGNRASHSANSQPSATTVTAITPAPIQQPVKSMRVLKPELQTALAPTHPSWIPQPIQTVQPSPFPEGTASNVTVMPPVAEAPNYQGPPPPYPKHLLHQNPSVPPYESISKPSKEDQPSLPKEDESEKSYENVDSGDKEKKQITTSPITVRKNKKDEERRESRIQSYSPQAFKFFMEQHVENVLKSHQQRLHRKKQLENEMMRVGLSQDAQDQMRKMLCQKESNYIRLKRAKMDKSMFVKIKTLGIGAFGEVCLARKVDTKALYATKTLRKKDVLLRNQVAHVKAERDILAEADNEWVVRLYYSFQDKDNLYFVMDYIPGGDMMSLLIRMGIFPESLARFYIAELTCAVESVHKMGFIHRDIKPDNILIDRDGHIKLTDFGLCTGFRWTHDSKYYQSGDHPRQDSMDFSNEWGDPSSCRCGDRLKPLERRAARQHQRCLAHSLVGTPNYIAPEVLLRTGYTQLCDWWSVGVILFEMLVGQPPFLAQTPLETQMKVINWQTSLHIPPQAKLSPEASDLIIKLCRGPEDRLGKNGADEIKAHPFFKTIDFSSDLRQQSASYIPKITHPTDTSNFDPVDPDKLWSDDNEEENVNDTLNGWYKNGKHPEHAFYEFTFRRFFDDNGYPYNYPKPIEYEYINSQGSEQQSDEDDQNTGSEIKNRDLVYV

[7] = target: Serine/threonine-protein kinase MARK1 (Homo sapiens) (UniProt Q9P0L2); experiment: Inhibition of MARK1 (unknown origin) assessed as remaining activity at 1 uM by Kinome scan method relative to control
Sequence of Serine/threonine-protein kinase MARK1 (Homo sapiens) (Q9P0L2 whole entry, looked up): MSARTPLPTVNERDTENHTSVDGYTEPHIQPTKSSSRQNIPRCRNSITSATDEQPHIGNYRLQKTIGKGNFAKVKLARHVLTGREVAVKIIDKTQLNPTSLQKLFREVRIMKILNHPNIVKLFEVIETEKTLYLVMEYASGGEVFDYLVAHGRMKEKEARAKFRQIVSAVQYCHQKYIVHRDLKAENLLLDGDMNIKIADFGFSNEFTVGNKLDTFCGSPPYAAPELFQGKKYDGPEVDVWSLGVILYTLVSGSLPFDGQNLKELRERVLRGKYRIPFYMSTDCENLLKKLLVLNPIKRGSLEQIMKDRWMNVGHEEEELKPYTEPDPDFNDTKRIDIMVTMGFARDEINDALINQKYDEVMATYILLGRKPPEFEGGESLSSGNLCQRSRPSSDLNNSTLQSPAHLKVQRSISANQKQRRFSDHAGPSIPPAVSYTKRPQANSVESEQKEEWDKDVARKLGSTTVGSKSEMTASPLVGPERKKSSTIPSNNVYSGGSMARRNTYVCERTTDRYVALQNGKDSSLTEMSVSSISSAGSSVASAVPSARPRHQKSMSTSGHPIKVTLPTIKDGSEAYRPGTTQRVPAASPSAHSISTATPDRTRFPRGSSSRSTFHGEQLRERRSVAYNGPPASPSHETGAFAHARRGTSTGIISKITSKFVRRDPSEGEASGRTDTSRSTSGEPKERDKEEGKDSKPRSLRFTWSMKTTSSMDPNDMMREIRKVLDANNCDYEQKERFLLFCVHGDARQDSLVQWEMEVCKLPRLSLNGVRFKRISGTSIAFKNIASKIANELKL

[8] = target: T1, Muscle, skeletal receptor tyrosine-protein kinase (Homo sapiens) (UniProt O15146); experiment: Inhibition of MUSK (unknown origin) assessed as remaining activity at 1 uM by Kinome scan method relative to control
T1 sequence (whole entry): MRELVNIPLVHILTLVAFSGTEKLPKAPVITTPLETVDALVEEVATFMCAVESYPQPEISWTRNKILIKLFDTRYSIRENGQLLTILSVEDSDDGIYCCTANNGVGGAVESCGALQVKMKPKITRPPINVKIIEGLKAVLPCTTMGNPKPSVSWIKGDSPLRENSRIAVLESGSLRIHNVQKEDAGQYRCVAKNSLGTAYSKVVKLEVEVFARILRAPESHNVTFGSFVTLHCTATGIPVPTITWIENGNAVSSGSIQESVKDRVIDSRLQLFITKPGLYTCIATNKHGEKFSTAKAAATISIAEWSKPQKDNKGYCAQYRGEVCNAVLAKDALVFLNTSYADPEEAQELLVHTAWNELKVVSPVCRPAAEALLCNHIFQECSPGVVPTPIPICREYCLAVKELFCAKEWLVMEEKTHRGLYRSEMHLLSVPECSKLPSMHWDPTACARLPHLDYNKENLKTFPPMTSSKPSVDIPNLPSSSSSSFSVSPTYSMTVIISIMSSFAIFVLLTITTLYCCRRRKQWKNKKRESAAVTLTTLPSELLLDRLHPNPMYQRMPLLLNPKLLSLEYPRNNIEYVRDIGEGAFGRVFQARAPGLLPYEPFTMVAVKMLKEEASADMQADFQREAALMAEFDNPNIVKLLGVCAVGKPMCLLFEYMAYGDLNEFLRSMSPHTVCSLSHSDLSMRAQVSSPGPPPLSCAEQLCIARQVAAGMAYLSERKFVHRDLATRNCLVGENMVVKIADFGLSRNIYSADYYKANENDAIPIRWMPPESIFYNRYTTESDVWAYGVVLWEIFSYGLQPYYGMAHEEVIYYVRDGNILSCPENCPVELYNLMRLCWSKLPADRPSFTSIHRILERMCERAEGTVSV

[9] = target: Myosin light chain kinase, smooth muscle (Homo sapiens) (UniProt Q15746); experiment: Inhibition of MYLK (unknown origin) assessed as remaining activity at 1 uM by Kinome scan method relative to control
Sequence of Myosin light chain kinase, smooth muscle (Homo sapiens) (Q15746 whole entry): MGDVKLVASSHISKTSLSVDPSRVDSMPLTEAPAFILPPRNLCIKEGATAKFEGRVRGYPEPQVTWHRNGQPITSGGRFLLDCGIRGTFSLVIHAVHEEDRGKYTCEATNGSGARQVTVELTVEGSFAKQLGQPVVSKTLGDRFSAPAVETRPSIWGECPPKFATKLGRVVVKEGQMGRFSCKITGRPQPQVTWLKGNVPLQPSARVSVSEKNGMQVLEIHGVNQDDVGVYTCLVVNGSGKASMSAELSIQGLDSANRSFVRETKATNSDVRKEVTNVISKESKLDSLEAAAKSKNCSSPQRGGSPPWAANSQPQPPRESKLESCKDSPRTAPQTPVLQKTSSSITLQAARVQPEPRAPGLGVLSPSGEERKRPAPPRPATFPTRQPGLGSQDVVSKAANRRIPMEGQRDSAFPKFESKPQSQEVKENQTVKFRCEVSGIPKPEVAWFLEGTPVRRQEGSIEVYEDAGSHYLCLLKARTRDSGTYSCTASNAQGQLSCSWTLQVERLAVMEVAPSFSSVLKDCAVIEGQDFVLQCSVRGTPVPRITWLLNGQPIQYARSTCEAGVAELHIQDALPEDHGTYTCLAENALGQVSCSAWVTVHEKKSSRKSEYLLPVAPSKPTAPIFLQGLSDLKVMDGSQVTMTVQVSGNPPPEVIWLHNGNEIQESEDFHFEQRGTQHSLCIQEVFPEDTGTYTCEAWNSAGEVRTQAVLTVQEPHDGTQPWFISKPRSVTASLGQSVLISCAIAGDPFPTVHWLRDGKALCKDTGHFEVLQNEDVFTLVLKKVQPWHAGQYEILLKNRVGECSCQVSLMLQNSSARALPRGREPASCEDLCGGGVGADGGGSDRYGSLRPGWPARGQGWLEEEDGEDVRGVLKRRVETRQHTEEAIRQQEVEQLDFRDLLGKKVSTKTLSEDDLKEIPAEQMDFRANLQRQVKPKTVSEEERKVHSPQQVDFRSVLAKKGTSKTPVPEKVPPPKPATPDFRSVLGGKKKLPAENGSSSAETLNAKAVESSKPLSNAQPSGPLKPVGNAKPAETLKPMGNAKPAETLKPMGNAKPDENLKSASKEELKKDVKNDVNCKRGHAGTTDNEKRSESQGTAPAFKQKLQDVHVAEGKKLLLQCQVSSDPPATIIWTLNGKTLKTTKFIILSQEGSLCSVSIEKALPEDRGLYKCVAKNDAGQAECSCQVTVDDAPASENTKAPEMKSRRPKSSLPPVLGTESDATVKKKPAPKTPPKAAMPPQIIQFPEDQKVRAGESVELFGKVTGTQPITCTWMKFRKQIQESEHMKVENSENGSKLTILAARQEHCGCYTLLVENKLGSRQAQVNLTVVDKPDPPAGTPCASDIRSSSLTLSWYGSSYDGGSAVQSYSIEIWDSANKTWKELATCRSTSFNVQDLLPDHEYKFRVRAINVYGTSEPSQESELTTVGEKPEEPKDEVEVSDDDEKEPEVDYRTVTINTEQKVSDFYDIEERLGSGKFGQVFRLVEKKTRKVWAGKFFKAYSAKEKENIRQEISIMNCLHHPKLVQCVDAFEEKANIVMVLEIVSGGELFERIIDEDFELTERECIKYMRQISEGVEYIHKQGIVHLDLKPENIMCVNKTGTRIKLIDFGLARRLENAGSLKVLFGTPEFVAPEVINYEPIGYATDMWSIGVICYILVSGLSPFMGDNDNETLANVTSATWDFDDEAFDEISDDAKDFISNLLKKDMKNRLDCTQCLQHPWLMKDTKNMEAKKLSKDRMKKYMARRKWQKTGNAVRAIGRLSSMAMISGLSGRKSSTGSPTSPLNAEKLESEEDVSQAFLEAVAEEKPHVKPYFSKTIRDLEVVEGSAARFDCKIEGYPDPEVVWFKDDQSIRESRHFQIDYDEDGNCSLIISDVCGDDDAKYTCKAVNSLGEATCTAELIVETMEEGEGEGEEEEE

[10] = target: Myosin-IIIb (Homo sapiens) (UniProt Q8WXR4); experiment: Inhibition of MYO3B (unknown origin) assessed as remaining activity at 1 uM by Kinome scan method relative to control
[11] = target: T2, Mitogen-activated protein kinase 12 (Homo sapiens) (UniProt P53778); experiment: Inhibition of P38gamma (unknown origin) assessed as remaining activity at 1 uM by Kinome scan method relative to control
T2 sequence (whole entry): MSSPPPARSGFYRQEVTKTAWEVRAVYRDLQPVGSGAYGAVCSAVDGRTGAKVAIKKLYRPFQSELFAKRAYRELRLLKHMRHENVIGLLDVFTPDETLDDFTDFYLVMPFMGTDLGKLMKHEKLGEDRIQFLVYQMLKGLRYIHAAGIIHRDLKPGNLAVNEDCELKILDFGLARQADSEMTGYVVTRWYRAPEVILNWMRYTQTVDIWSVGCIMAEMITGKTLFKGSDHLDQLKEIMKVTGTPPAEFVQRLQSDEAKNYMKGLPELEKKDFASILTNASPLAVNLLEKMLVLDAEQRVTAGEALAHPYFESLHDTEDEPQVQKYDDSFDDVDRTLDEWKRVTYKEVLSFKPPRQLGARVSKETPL

[12] = target: Serine/threonine-protein kinase PLK3 (Homo sapiens) (UniProt Q9H4B4); experiment: Inhibition of PLK3 (unknown origin) assessed as remaining activity at 1 uM by Kinome scan method relative to control
[13] = target: Ribosomal protein S6 kinase alpha-4 (Homo sapiens) (UniProt O75676); experiment: Inhibition of N-terminal kinase domain RPS6KA4 (unknown origin) assessed as remaining activity at 1 uM by Kinome scan method relative to control
[14] = target: SRSF protein kinase 2 (Homo sapiens) (UniProt P78362); experiment: Inhibition of SRPK2 (unknown origin) assessed as remaining activity at 1 uM by Kinome scan method relative to control
[15] = target: Serine/threonine-protein kinase 36 (Homo sapiens) (UniProt Q9NRP7); experiment: Inhibition of STK36 (unknown origin) assessed as remaining activity at 1 uM by Kinome scan method relative to control
[16] = target: STE20/SPS1-related proline-alanine-rich protein kinase (Homo sapiens) (UniProt Q9UEW8); experiment: Inhibition of STK39 (unknown origin) assessed as remaining activity at 1 uM by Kinome scan method relative to control

Structure (SMILES)	Activity [1] [%]	Activity [2] [%]	Activity [3] [%]	Activity [4] [%]	Activity [5] [%]	Activity [6] [%]	Activity [7] [%]	Activity [8] [%]	Activity [9] [%]	Activity [10] [%]	Activity [11] [%]	Activity [12] [%]	Activity [13] [%]	Activity [14] [%]	Activity [15] [%]	Activity [16] [%]
Nc1ccccc1Nc1ccc2c(c1)CCc1ccccc1C2=O	78	96	96	64	85	96	88	86	72	93	98	97	94	79	97	77
O=C1c2ccc(Nc3ccc(F)cc3F)cc2CCc2ccc(OC[C@H](O)CO)cc21 [Skepinone-L]	92	95	99	67	89	90	93	90	97	99	88	100	82	95	98	93
